# Reference: patent publication US12655148B2, “FXR small-molecule agonist, and preparation method therefor and use thereof” (Shanghai Institute of Materia Medica, Chinese Academy of …, priority 2020, dated 2026)
# Like-named read-outs stand apart in the source and are kept apart here.
# Assays:
# [1] = molecular target: T1, recombinant GST-FXR fusion protein (Homo sapiens, UniProt Q96RI1); assay: FXR activity at the molecular level (AlphaScreen); type: biochemical
# T1 sequence (Q96RI1 1-486): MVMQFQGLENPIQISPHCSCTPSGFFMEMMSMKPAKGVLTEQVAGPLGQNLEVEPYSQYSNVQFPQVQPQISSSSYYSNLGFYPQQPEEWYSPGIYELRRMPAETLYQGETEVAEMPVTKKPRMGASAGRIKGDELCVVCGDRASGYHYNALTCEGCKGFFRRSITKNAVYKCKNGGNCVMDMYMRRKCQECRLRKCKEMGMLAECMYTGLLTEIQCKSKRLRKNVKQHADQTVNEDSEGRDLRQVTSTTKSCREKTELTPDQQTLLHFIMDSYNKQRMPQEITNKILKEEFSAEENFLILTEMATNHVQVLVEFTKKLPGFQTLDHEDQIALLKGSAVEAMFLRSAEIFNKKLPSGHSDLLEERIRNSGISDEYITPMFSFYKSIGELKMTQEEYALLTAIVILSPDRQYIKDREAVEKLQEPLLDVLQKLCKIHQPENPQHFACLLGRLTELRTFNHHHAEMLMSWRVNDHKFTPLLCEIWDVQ
# Protocol: Test Method for FXR Activity at the Molecular Level
# FXR activity was determined using recombinant GST-FXR fusion protein by AlphaScreen detection reagent from PerkinElmer. The reaction in this method was carried out in a 384-well plate, and the total reaction volume was 15 μL. A mixture of protein, agonist, co-regulatory factor, AlphaScreen® acceptor beads and AlphaScreen® donor beads was reacted in a buffer containing Tris-HCl 50 mM (pH7.4), 50 mM NaCl, BSA 0.1%, and 1 mM DTT. The FXR activity was reflected by the fluorescence signal intensity at 570 nm wavelength detected by the Envision fluorescence detector.
# FXR receptor = molecular target: T2, FXR receptor (Homo sapiens, UniProt Q96RI1); assay: FXR activity at the cellular level (FXRE luciferase reporter in 293T cells); type: cell-based
# T2 construct: expressed in transfected cells; host or cells: 293T cells
# T2 sequence (Q96RI1 1-486): T1 sequence (Q96RI1 1-486)
# Protocol: The cells were cultured for 24 hours to ensure plasmid expression. Then the FXR receptor agonists to be tested were added and incubated for 18 hours. The fluorescence intensity was detected using a luciferase kit (steady-Glo Luciferase Assay system) to reflect the compound's activation efficiency on the FXR receptor.
# [2] = AlphaScreen, GST-FXR, read-out: FXR activity at the molecular level EC50
# [3] = 293T cells, luciferase reporter
# [4] = 293T cells, luciferase reporter, read-out: FXR activity at the celluar level EC50
smiles,measurement,setting,value
Cc1ccccc1-c1noc(C2CC2)c1CO[C@H]1C[C@H]2CC[C@@H](C1)N2c1ccc(-c2noc(=O)[nH]2)c(F)c1 [Example 14],EC50,[1]; [2],10 to 100 nM
same,FXR activity at the celluar level Activity relative to OCA (%) 10 μM,FXR receptor; [3],106%
same,EC50,FXR receptor; [4],0.1 to 1 nM
O=c1[nH]c(-c2ccc(N3[C@@H]4CC[C@H]3C[C@@H](OCc3c(-c5c(Cl)cccc5Cl)noc3C3CC3)C4)cc2F)no1 [Example 8],EC50,[1]; [2],< 10 nM
same,EC50,FXR receptor,< 0.1 nM
same,FXR activity at the celluar level Activity relative to OCA (%) 10 μM,FXR receptor; [3],102%
O=c1[nH]c(-c2ccc(N3[C@@H]4CC[C@H]3C[C@@H](OCc3c(-c5c(Cl)cccc5Cl)noc3C3CC3)C4)cc2)no1 [Example 1],EC50,[1]; [2],< 10 nM
same,"difference of activity on FXR at molecular level, endo-compound vs exo-compound",[1]; endo- versus exo-compound,more than 100 times
same,FXR activity at the celluar level Activity relative to OCA (%) 10 μM,FXR receptor; [3],88%
same,EC50,FXR receptor; [4],1 to 10 nM
O=c1[nH]c(-c2ccc(N3[C@@H]4CC[C@H]3C[C@H](OCc3c(-c5c(Cl)cccc5Cl)noc3C3CC3)C4)cc2)no1 [Example 2],EC50,[1]; [2],> 1000 nM
same,FXR activity at the celluar level Activity relative to OCA (%) 10 μM,FXR receptor; [3],73%
same,EC50,FXR receptor; [4],> 100 nM
O=c1[nH]c(-c2ccc(N3[C@@H]4CC[C@H]3C[C@@H](OCc3c(-c5ccccc5OC(F)F)noc3C3CC3)C4)nc2)no1 [Example 11],EC50,[1]; [2],10 to 100 nM
same,FXR activity at the celluar level Activity relative to OCA (%) 10 μM,FXR receptor; [3],108%
same,EC50,FXR receptor; [4],1 to 10 nM
O=c1[nH]c(-c2ccc(N3[C@@H]4CC[C@H]3C[C@@H](OCc3c(-c5ccccc5C(F)(F)F)noc3C3CC3)C4)cc2F)no1 [Example 9],EC50,[1]; [2],10 to 100 nM
same,FXR activity at the celluar level Activity relative to OCA (%) 10 μM,FXR receptor; [3],102%
same,EC50,FXR receptor; [4],0.1 to 1 nM
O=c1[nH]c(-c2ccc(N3[C@@H]4CC[C@H]3C[C@@H](OCc3c(-c5ccccc5C(F)(F)F)noc3C3CC3)C4)nc2)no1 [Example 5],EC50,[1]; [2],10 to 100 nM
same,FXR activity at the celluar level Activity relative to OCA (%) 10 μM,FXR receptor; [3],141%
same,EC50,FXR receptor; [4],0.1 to 1 nM
O=c1[nH]c(-c2ccc(N3[C@@H]4CC[C@H]3C[C@@H](OCc3c(-c5c(F)cccc5F)noc3C3CC3)C4)cc2F)no1 [Example 7],EC50,[1],10 to 100 nM
same,EC50,FXR receptor,0.1 to 1 nM
same,FXR activity at the celluar level Activity relative to OCA (%) 10 μM,FXR receptor; [3],117%
O=c1[nH]c(-c2ccc(N3[C@@H]4CC[C@H]3C[C@@H](OCc3c(-c5ccccc5OC(F)(F)F)noc3C3CC3)C4)nc2)no1 [Example 6],EC50,[1]; [2],10 to 100 nM
same,FXR activity at the celluar level Activity relative to OCA (%) 10 μM,FXR receptor; [3],122%
same,EC50,FXR receptor; [4],0.1 to 1 nM
O=c1[nH]c(-c2ccc(N3[C@@H]4CC[C@H]3C[C@@H](OCc3c(-c5c(Cl)cccc5Cl)noc3C3CC3)C4)nc2)no1 [Example 4],EC50,[1]; [2],< 10 nM
same,FXR activity at the celluar level Activity relative to OCA (%) 10 μM,FXR receptor; [3],103%
same,EC50,FXR receptor; [4],< 0.1 nM
O=c1[nH]c(-c2ccc(N3[C@@H]4CC[C@H]3C[C@@H](OCc3c(-c5c(F)cccc5F)noc3C3CC3)C4)nc2)no1 [Example 3],EC50,[1]; [2],10 to 100 nM
same,FXR activity at the celluar level Activity relative to OCA (%) 10 μM,FXR receptor; [3],116%
same,EC50,FXR receptor; [4],0.1 to 1 nM
Cc1ccccc1-c1noc(C2CC2)c1CO[C@H]1C[C@H]2CC[C@@H](C1)N2c1ccc(-c2noc(=O)[nH]2)cn1 [Example 12],EC50,[1]; [2],10 to 100 nM
same,FXR activity at the celluar level Activity relative to OCA (%) 10 μM,FXR receptor; [3],105%
same,EC50,FXR receptor; [4],1 to 10 nM
O=c1[nH]c(-c2ccc(N3[C@@H]4CC[C@H]3C[C@@H](OCc3c(-c5ccccc5OC(F)F)noc3C3CC3)C4)cc2F)no1 [Example 13],EC50,[1]; [2],10 to 100 nM
same,FXR activity at the celluar level Activity relative to OCA (%) 10 μM,FXR receptor; [3],108%
same,EC50,FXR receptor; [4],0.1 to 1 nM
O=c1[nH]c(-c2ccc(N3[C@@H]4CC[C@H]3C[C@@H](OCc3c(-c5ccccc5OC(F)(F)F)noc3C3CC3)C4)cc2F)no1 [Example 10],EC50,[1]; [2],10 to 100 nM
same,FXR activity at the celluar level Activity relative to OCA (%) 10 μM,FXR receptor; [3],102%
same,EC50,FXR receptor; [4],0.1 to 1 nM
